Laboratory results published in patent US5486516A, “Furopyrimidine derivatives” (DowElanco, priority 1993, dated 1996).

Key:
[1] = test system: Erysiphe graminis tritici (powdery mildew); test: Plant pathology screen (Test 1), powdery mildew on wheat; conditions: Blumeria graminis, in Triticum aestivum, foliar, read-out: POWD MDEW control rating
[2] = test system: Pseudoperonospora cubensis (downy mildew); test: Plant pathology screen (Test 1), downy mildew on squash; conditions: foliar, read-out: DOWN MDEW control rating
[3] = test system: Pyricularia oryzae (rice blast); test: whole plant or invertebrate; format: in vivo; conditions: foliar, read-out: RICE BLAST control rating
[4] = test system: Puccinia recondita tritici (leaf rust); test: Plant pathology screen (Test 1), leaf rust on wheat; conditions: in Triticum aestivum, foliar, read-out: LEAF RUST control rating
Method: This screen was used to evaluate the efficacy of the present compounds against a variety of different organisms that cause plant diseases.
The test compounds were formulated for application by dissolving 50 mg of the compound into 1.25 ml of solvent. The solvent was prepared by mixing 50 ml of "Tween 20" (polyoxyethylene (20) sorbitan monolaurate emulsifier) with 475 ml of acetone and 475 ml of ethanol. The solvent/compound solution was diluted to 125 ml with deionized water. The resulting formulation contains 400 ppm test chemical. Lower concentrations were obtained by serial dilution with the solvent-surfactant mixture.
The formulated test compounds were applied by foliar spray.
The formulated technical compounds were sprayed on all foliar surfaces of the host plants (or cut berry) to past run-off. Single pots of each host plant were placed on raised, revolving pedestals in a fume hood. Test solutions were sprayed on all foliar surfaces. All treatments were allowed to dry and the plants were inoculated with the appropriate pathogens within 2-4 hours.
The effectiveness of test compounds in controlling disease was rated using the following scale.

[5] = test system: melon aphids (Aphis gossvpii Glover); test: Mite/insect screen, melon aphids; format: in vivo; conditions: Aphis, sprayed leaves, read-out: MA results (percent mortality); for mortality at 200 ppm: rate 200 ppm; for mortality at 400 ppm: rate 400 ppm
Method: (§1) The compounds of Examples were tested for miticidal and insecticidal activity in the following mite/insect screen.
(§2) Each test compound was formulated by dissolving the compound in acetone/alcohol (50:50) mixture containing 23 g of "TOXIMUL R" (sulfonate/nonionic emulsifier blend) and 13 g of "TOXIMUL S" (sulfonate/nonionic emulsifier blend) per liter. These mixtures were then diluted with water to give the indicated concentrations.
(§3) Twospotted spider mites (Tetranychus urticae Koch) and melon aphids (Aphis gossvpii Glover) were introduced on squash cotyledons and allowed to establish on both leaf surfaces. Other plants in the same treatment pot were left uninfested. The leaves were then sprayed with 5 ml of test solution using a DeVilbiss atomizing sprayer at 10 psi. Both surfaces of the leaves were covered until runoff, and then allowed to dry for one hour. Two uninfested leaves were then excised and placed into a Petri dish containing larval southern armyworm (Spodopetra eridania Cramer).
(§4) After standard exposure periods, percent mortality and phytotoxicity were evaluated. […] The following abbreviations are used in Table 3:
MA refers to melon aphids.

[6] = test system: Southern corn rootworm (Diabrotica undecimpuctata howardi Barber); test: Mite/insect screen, corn rootworm; format: in vivo; conditions: Diabrotica, soil, read-out: CRW results (percent mortality); for mortality at 12 ppm: CRW rate 12.00 ppm; for mortality at 24 ppm: CRW rate 24.00 ppm
Method: as §1, §2
Activity on Southern corn rootworm (Diabrotica undecimpuctata howardi Barber) was evaluated by adding two ml of tap water, a presoaked corn seed, and 15 g of dry sandy soil to a one ounce plastic container. The soil was treated with 1 mL of test solution containing a predetermined concentration of test compound. After six to 12 hours of drying, five 2-3 instar corn rootworm larvae were added to the individual cups, which were then capped and held at 23° C.
as §4
CRW refers to corn rootworm

[7] = test system: Twospotted spider mites (Tetranychus urticae Koch); test: Mite/insect screen, twospotted spider mites; format: in vivo; conditions: Tetranychus urticae, sprayed leaves, read-out: SM results (percent mortality); for mortality at 200 ppm: rate 200 ppm; for mortality at 400 ppm: rate 400 ppm
Method: as §1, §2, §3, §4
SM refers to twospotted spider mites

[8] = test system: southern armyworm (Spodopetra eridania Cramer); test: Mite/insect screen, Southern armyworm; format: in vivo; conditions: Spodoptera eridania, sprayed leaves, read-out: SAW results (percent mortality); for mortality at 200 ppm: rate 200 ppm; for mortality at 400 ppm: rate 400 ppm
Method: as §1, §2, §3, §4
SAW refers to Southern armyworm

[9] = test system: Botrytis cinerea (gray mold); test: Plant pathology screen (Test 1), gray mold on grape berries; conditions: read-out: GRAY MOLD control rating

| SMILES | pest or weed control at 400 µg/mL [1] [%] | pest or weed control at 400 µg/mL [2] [%] | pest or weed control at 400 µg/mL [3] [%] | pest or weed control at 400 µg/mL [4] [%] | mortality at 200 ppm [5] [%] | mortality at 400 ppm [5] [%] | mortality at 12 ppm [6] [%] | mortality at 24 ppm [6] [%] | mortality at 200 ppm [7] [%] | mortality at 400 ppm [7] [%] | mortality at 200 ppm [8] [%] | mortality at 400 ppm [8] [%] | pest or weed control at 400 µg/mL [9] [%] |
| --- | --- | --- | --- | --- | --- | --- | --- | --- | --- | --- | --- | --- | --- |
| Cc1oc2ncnc(OCCCc3cccnc3)c2c1C [Example 13, 5,6-dimethyl-4-[3-(3-pyridinyl)propoxy]furo[2,3-d]pyrimidine] | 0 to 19 | 0 to 19 | 0 to 19 | 0 to 19 | 0 | 0 | 0 | 100 | 0 | 0 | 0 | 0 | 0 to 19 |
| Cc1oc2ncnc(OCCc3ccc(C(F)(F)F)cc3)c2c1C [Example 54] | 90 to 100 | 0 to 19 | 90 to 100 | 90 to 100 | 100 | 40 | 0 | 0 | 100 | 60 | 0 | 40 | 0 to 19 |
| Cc1oc2ncnc(NCC(Cc3ccc(F)cc3)c3ccc(Cl)cc3)c2c1C (stereo not drawn) [Example 26, N-[2-(4-chlorophenyl)-3-(4-fluorophenyl)propyl]-5,6-dimethylfuro[2,3-d]pyrimidin-4-amine] | 0 to 19 | 0 to 19 | 0 to 19 | 0 to 19 | 0 | 0 | 0 | 0 | 0 | 0 | 0 | 0 | 0 to 19 |
| COc1ccc(CCNc2ncnc3oc(C)c(C)c23)cc1OC [Example 25, 5,6-dimethyl-N-[2-(3,4-dimethoxyphenyl)ethyl]furo[2,3-d]pyrimidin-4-amine] | 0 to 19 | 0 to 19 | 0 to 19 | 20 to 89 | 0 | 0 | 0 | 0 | 0 | 0 | 0 | 0 | 0 to 19 |
| Cc1cc2c(OCCc3ccc(C(C)(C)C)cc3)ncnc2o1 [Example 46, 4-[2-[4-(1,1-dimethylethyl)phenyl]ethoxy]-6-methylfuro[2,3-d]pyrimidine] | 0 to 19 | 0 to 19 | 0 to 19 | 0 to 19 | 90 | 60 | 0 | 0 | 80 | 80 | 0 | 0 | 0 to 19 |
| CCOc1ccc(CCNc2ncnc3oc(C)cc23)cc1 [Example 9, 6-methyl-N-[2-(4-ethoxyphenyl)ethyl]furo(2,3-d]pyrimidin-4-amine] | 0 to 19 | 20 to 89 | 0 to 19 | 90 to 100 | 0 | 0 | 0 | 0 | 0 | 0 | 0 | 0 | 0 to 19 |
